Results on three molecules are retold here after PMC8783508, “A novel D-amino acid peptide with therapeutic potential (ISAD1) inhibits aggregation of neurotoxic disease-relevant mutant Tau and prevents Tau toxicity in vitro” (Alzheimer's Research & Therapy, 2022).

In series [1] the test system is N2a-Tau^RDΔK cells. Kind of series: MTT cytotoxicity of the peptides alone. The class given is cell-based. The note with it: 25, 50, 100, 250 μM peptide, 24 h, n = 3. The method, then:
Cell viability was analyzed in accordance with the manufacturer’s protocol (Roche Diagnostics, Mannheim, Germany; cell proliferation kit II (MTT)). This assay is based on the cleavage of the yellow tetrazolium salt MTT into purple formazan dye by metabolic active cells. The color changes only in viable cells and can be directly quantified using a scanning multiwell spectrophotometer. In all experiments, the cells were grown as described previously. The cells (25,000 cells/well or 80% confluence) were plated on poly D-lysine-coated 96-well plates (Greiner Bio-One GmbH, Frickenhausen, Germany) for stronger attachment from overnight to 24 h at 37 °C. Fibrillized Tau^RDΔK was generated by incubating 200 μM Tau^RDΔK in BES buffer at 37 °C for 24 h in the presence of 2 mM D-peptides (Tau^RDΔK:peptide = 1:10). Successful fibrillization was verified using ThS (5 μM Tau^RDΔK, 10 μM ThS) measurement. The aggregated Tau^RDΔK (10 μM final concentration), Tau^RDΔK (10 μM) + peptide (100 μM) samples (ISAD1 and ISAD1rev), buffer only (negative control, set to 100% cell viability), and TritonX-100 (2%, cytotoxic agent, positive control) were incubated on N2a-Tau^RDΔK cells (100 μl solution) for another 24 h. The cell viability was measured in accordance with the manufacturer’s protocol.
A MTT-based cytotoxicity assay in the presence of ISAD1 and ISAD1rev peptides. […]

Series [2] deals with N2a-Tau^RDΔK cells. Kind of series: LDH release with the peptides alone. Type of series: cell-based. The note with it: 25, 50, 100, 250 μM peptide, 24 h, n = 3. How it is done:
N2a cells expressing Tau^RDΔK were plated on poly D-lysine-coated 96-well plates with a density of 25,000 cells/well. At 70 to 80% confluence, the cells were treated for 24 h with various concentrations of D-peptides (25, 50, 100, and 250 μM) or Tau^RDΔK (10 μM final concentration) in the presence of ISAD1 and ISAD1rev (100 μM final concentration). The ability of D-peptides to neutralize the toxicity of Tau^RDΔK oligomers/fibrils was investigated by measuring the amount of released LDH (Roche Diagnostics, Mannheim, Germany). Therefore, 50 μL of each well was transferred to a fresh 96-well plate and 50 μL of reagent was added followed by a 30-min incubation period at RT. Finally, 50 μL of stop solution (1 N HCl) was added and absorbance was recorded at 492 nm (TECAN spectrofluorometer, Männedorf, Switzerland). Absorbance values were corrected by background values and the percentage of LDH release was calculated.

Series [3] has as its system N2a cells expressing Tau^RDΔK. Briefly: Uptake of FAM-labeled D-peptides by confocal microscopy. The class given is cell-based. The conditions noted are these: 25 μM FAM-labeled peptide, 24 h, fixed cells. How it is done:
In order to become potentially suitable for therapeutic development, the D-peptides should be internalized by neurons. To test this, 25 μM FAM-labeled ISAD1 or its inversed form was added to cells that express pro-aggregant mutant Tau^RDΔK for 24 h followed by cell fixation.
Fig. 7 Uptake of fluorescence-labeled D-peptides analyzed by confocal microscopy. 25 μM FAM-labeled peptides (ISAD1 and ISArev) were incubated with N2a cells expressing Tau^RDΔK for 24 h. The uptake of D-peptides was analyzed by confocal microscopy. As shown in the representative images, the peptides are mainly localized in the cytoplasm (A1, B1 Draq5 shown as red; A2 ISAD1-FAM, B2 ISAD1rev-FAM; A3, B3 merged images)

Another series has as its system Tau. The conditions noted are these: PHF6 addressing peptide; read-out: Inhibition of fibrillization of Tau (compared with the IC50 of ISAD1); cited from earlier work. How it is done:
Aggregation of Tau is the primary hallmark for the disease pathology in AD and other tauopathies. A significant inhibition of the aggregation by therapeutic molecules is considered beneficial. Our novel peptide ISAD1 inhibited the fibrillization of Tau^FL and pro-aggregant Tau^RDΔK (IC50 of ~3 μM) in concentrations which are typical for peptide inhibitors.

Series [4] deals with T1, Tau^FL (Homo sapiens, UniProt P10636).
T1 construct: Tau^FL Full-length human Tau (441 AA); made in house
Briefly: Fibrillization of Tau^FL monitored by ThT assay. Type of series: biochemical. The arrangement: key to Inhibition of Tau^FL aggregation: (+/-) indicates comparably low inhibition of Tau^FL fibrillization; (-) indicates that the peptide showed no effect on fibril formation. The conditions noted are these: L-peptides. The method, then: Tau aggregation assays were performed under reducing conditions. Before the addition of heparin and peptides, a final concentration of 1 mM dithiothreitol (DTT) was added to the Tau protein solution and heated at 95 °C for 10 min. […] Final concentration of 10 μM ThT was used for monitoring fibrillization. In case of the two hexapeptides, 5 μM PHF6 and 5 μM PHF6*, respectively, without addition of the aggregation inducer heparin (16000 Da) were used for monitoring the fibrillization process. The assays were performed with 50-μl sample volume per well in a 96-well half area microtiter plate (Greiner Bio-One GmbH, Frickenhausen, Germany). The fibrillization of Tau^FL was monitored by ThT, and the relative fluorescence intensity of ThT was read out at 440 excitation/521 emission nm in a BMG microplate reader (BMG Labtech, Ortenberg, Germany).

In series [5] the target is T1, Tau^FL. Briefly: ELISA of FAM-labeled peptide binding to Tau^FL. The conditions noted are these: FAM-labelled peptide 0.1 – 200 µM, Tau^FL 5 µg/ml, n = 3. How it is done: A 96-well microtiter plate (Greiner Bio-One GmbH, Frickenhausen, Germany) was coated with 5 μg/ml Tau^FL or fibrils in coating buffer for incubation overnight at 4 °C. For investigation of the binding properties to the hexapeptide, 5 μM PHF6 was coated overnight. After three times washing with 300 μl phosphate-buffered saline with Tween20 (PBST: PBS with 0.1 % [v/v] Tween20), the plate was blocked with 3 % [w/v] BSA in PBS for 1 h at RT, followed by further washing steps. […] The plate was washed three times with PBST before 100 μl sheep anti-fluorescein isothiocyanate (FITC) HRP-conjugate (1:5000 dilution in PBST; AbD Serotec, Puchheim, Germany) was added and incubated for 1 h at RT with gentle agitation. Again, the plate was washed for three times, followed by addition of the TMB substrate. The reaction was stopped with 20 % [v/v] H2SO4 and absorbance was measured at 450 nm.
(An ELISA detects its analyte on a solid surface through an enzyme-linked reagent.)

Non-standard residues stand in square brackets, D forms with d. Residues, ends and D or L forms follow the SMILES beside them.

T1 sequence (P10636 1-441 isoform P10636-8): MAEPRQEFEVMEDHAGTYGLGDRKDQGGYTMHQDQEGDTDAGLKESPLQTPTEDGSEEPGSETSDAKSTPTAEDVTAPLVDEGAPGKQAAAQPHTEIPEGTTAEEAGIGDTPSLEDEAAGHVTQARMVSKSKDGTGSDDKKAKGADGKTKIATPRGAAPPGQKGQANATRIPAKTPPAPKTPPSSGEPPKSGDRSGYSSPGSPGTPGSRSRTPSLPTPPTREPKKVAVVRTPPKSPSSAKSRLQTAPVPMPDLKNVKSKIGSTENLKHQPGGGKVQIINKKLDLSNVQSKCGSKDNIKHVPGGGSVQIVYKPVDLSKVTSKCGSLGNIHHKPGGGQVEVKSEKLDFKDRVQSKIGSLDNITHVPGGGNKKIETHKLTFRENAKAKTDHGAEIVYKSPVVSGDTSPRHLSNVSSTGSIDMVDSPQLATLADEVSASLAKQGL

Take `CC(C)C[C@@H](NC(=O)[C@@H](CCCCN)NC(=O)[C@@H](Cc1ccccc1)NC(=O)[C@H](NC(=O)[C@H](N)CO)C(C)C)C(=O)N[C@H](CO)C(=O)N[C@H](CC(C)C)C(=O)N[C@@H](C(=O)N[C@H](CC(=O)O)C(=O)N[C@H](C)C(=O)N[C@H](C)C(=O)N[C@H](CO)C(=O)O)[C@H](C)O` [ISAD1] (H-[dS][dV][dF][dK][dL][dS][dL][dT][dD][dA][dA][dS]-OH): the “Cytotoxicity, MTT” value with N2a-Tau^RDΔK cells [1] is reported as “do not induce toxic effects”. Also, the “Cytotoxicity, LDH release” value with N2a-Tau^RDΔK cells [2] is “do not induce toxic effects”. Besides, in series [3], the Intracellular localisation result was “accumulated in the cytosol but were excluded from the nucleus” and the Uptake by cells entry was “almost all cells took up the D-peptides”.
One may read the IC50 as the concentration at which inhibition is half-maximal. With TLKIVW, in the series on Tau, the IC50 is 54.1 µM.
As to “SASVTSKFDALL [ISAL1sam, scrambled L-amino acid variant of ISAL1, control peptide]”, in the series with Tau^FL [4] (ThT assay), the “Inhibition of Tau^FL fibrillization, in words” value is reported as “did not inhibit”. Moreover, the “Inhibition of Tau^FL aggregation” value in the series with Tau^FL [4] (ThT fibrillization assay) was “-”. Besides, the “Binding to Tau^FL in ELISA, in words” value in the series with Tau^FL [5] is “no significant binding”.
